In brackets after ≈: the same amount, converted by molar mass.
Experiments:
[1] = Pharmacokinetic assay in SD rats; type: in vivo; conditions: PO 60 mg/kg; for AUC(0-inf) / Cmax / half-life / MRT: both sexes, Sprague-Dawley, rat, plasma; for AUC(0-inf): read-out: Area under the curve AUC0-∞; for Cmax: read-out: Blood concentration Cmax; for half-life: read-out: Half life T½ (converted); for MRT: read-out: Residence time MRT
Procedure: SD rats were taken as the test animals, and the compounds of the present invention were administrated to the rats by intravenous injection or gavage. Then the drug concentrations in the plasma at different times were measured using LC/MS/MS method to study the pharmacokinetic characteristics of the compounds of the present invention in rats.
Six healthy adult Sprague Dawley (SD) male rats were purchased from Vital River Laboratory Animal Technology Co., Ltd.
76.32 mg of compound 1m was weighed and dissolved in 12.72 mL of 0.5% sodium carboxymethyl cellulose (CMC-Na), the mixture was mixed by vortex for 1 minute until the compound was completely suspended, and the final prepared concentration was 6 mg/mL;
76.61 mg of compound 1 was weighed and dissolved in 12.768 mL of 0.5% sodium carboxymethyl cellulose (CMC-Na), the mixture was mixed by vortex for 1 minute until the compound was completely suspended, and the final prepared concentration was 6 mg/mL.
Compounds 2 to 4 were weighed and dissolved in an appropriate amount of 0.5% sodium carboxymethyl cellulose (CMC-Na), the mixture was mixed by vortex for 1 minute until the compound was completely suspended, and the final prepared concentration was 6 mg/mL.
Six healthy adult SD rats, half male and half female, were divided into 2 groups, 3 rats in each group. The rats were fasted overnight, and then intragastrically administered (po) with the compound 1m or compounds 1 to 4 of the present invention at a dose of 60 mg/kg.
About 0.25 mL of blood was collected from the jugular vein before the administration and 0.25 hours, 0.5 hours, 1 hour, 2 hours, 4 hours, 6 hours, 8 hours and 24 hours after the administration, and heparin sodium was used for anticoagulation. The blood samples were placed on ice after collection, and then centrifuged to separate the plasma (centrifugation conditions: 7000 rpm, 5 minutes). The collected plasma was stored below −70° C. until analysis.
300 μL of methanol (comprising internal standard working solution, Loratadine 800 ng/mL) was added to 100 μL of plasma sample, then the mixture was mixed by vortex for 5 minutes, then the obtained mixture was centrifuged at 10,000 rpm for 10 minutes, and 1 μL of the resulting mixture was taken and subjected to LC-MS/MS analysis.

human AT2R = target: T1, human AT2R (Homo sapiens, UniProt P50052); assay: Antagonistic activity against human AT2R ligand binding (Tag-lite HTRF); conditions: Tb-labeled-AT2R cells, red agonist fluorescent ligand, 1 hour at 25° C.
T1 construct: Tb (terbium) label on the receptor; expressed in transfected cells
T1 sequence (P50052 1-363): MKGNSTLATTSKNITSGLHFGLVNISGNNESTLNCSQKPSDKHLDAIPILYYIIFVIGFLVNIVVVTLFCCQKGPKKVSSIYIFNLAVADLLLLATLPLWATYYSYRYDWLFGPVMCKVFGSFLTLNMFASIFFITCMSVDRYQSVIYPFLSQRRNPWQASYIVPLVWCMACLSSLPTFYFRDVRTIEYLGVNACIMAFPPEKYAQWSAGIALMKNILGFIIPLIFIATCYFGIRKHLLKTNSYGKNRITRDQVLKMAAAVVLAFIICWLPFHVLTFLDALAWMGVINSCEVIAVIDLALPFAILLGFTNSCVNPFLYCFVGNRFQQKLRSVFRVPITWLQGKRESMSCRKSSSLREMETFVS
Excerpt: Test Example 1 Test of the antagonistic activity of the compounds of the present invention against human AT2R ligand binding.
Angiotensin II Type-2 receptor (ATR) is involved in neuronal differentiation and regeneration, cell proliferation and angiogenesis, and maintenance of bone mass. ATR inhibitors can be used for treating pain and abnormal neuroregenerative diseases, inhibiting the proliferation of tumor cells and increasing bone mass. In the following methods, the degree of antagonism of the compounds of the present invention against AT2R was studied through AT2 ligand binding assay.
According to standard methods, test compounds (compound 1m and compounds 1-4) were respectively dissolved in dimethyl sulfoxide to be prepared into stock solutions of 10 mM.
(2) The test compound was subjected to 5-fold dilution with a total of 10 concentration gradients;
(3) The diluted compound in step (2) was transferred to a working plate (3657, Corning) at 160 nL/well, 200 g at room temperature for 1 minute; […]
(11) The reaction plate was centrifuged at 200 g for 1 minute at room temperature, then kept still at room temperature 25° C. for 1 hour, and centrifuged at 200 g for 1 minute at room temperature. Data were collected using Envision HTRF microplate reader, and IC50 was calculated using nonlinear fitting formula.

Solubility test = type: physicochemical
Procedure: According to the conventional method for solubility assay, the solubility of the compounds of the present invention in the following four different systems was tested: phosphate salt buffer PBS (pH7.4), methanol, 0.1% HCl and water.

[2] = methanol, organic solvent or mixture

Row | SMILES | Increase of area under the curve compared with compound 1m ([1]; versus free acid compound 1m) | Increase of plasma concentration compared with compound 1m ([1]; versus free acid compound 1m) | AUC(0-inf) [1] | Cmax [1] | half-life [1] | MRT [1] | IC50 (human AT2R) | solubility (Solubility test; aqueous buffer, PBS (pH 7.4)) | solubility (Solubility test; [2]) | solubility (Solubility test; water)
1 | COc1ccc(COc2c(OC)ccc3c2C[C@@H](C(=O)[O-])N(c2nc4ccc(F)cc4o2)C3)nc1.[Na+] [Compound 1] | 14 times | more than 50 times | 328 ± 53.2 µg·h/mL | 127 ± 12.7 µg/mL | 3.57 ± 0.85 h | 2.59 ± 0.41 h | 6 nM | 8690 µg/mL | > 10000 µg/mL | 6410 µg/mL
2 | COc1ccc(COc2c(OC)ccc3c2C[C@@H](C(=O)O)N(c2nc4ccc(F)cc4o2)C3)nc1 [Compound 1m] | – | – | 22.2 ± 9.1 µg·h/mL | 2.4 ± 0.53 µg/mL | 3.73 ± 1.25 h | 6.13 ± 1.13 h | – | 150 µg/mL (≈ 313 µM) | 340 µg/mL (≈ 709 µM) | 30 µg/mL (≈ 62.6 µM)

From patent publication US12606551B2, “Salt of tetrahydroisoquinoline derivative, preparation method therefor, and medical use thereof” (ZHEJIANG HISUN PHARMACEUTICAL CO., LTD., priority 2020, dated 2026)
